# Laboratory results published in patent US4068074A, “Cephalosporin derivatives having at the 3-position of the cephem ring a heterocyclic thiomethyl group with a carboxy or sulfo group and at the 7-position of the cephem ring an α-heterocylic acylaminophenyl-acetamide group” (priority 1974, dated 1978).
# Like-named read-outs stand apart in the source and are kept apart here.
# What was measured:
# Proteus vulgaris OXK US = assay: MIC against bacteria (Table I), strain (1); format: cell-based
# Description: (§1) Now, for illustrating the excellent pharmacological effects of the compounds of this invention, the values of MIC (γ/ml.) of the compounds against various bacteria are shown in Table 1, in which the compounds of this invention used are shown by example numbers.
# (1) Proteus vulgaris OXK US
# Proteus vulgaris 0X 19US = assay: MIC against bacteria (Table I), strain (2); format: cell-based; conditions: 0X19US
# Description: as §1
# (2) Proteus vulgaris 0X 19US
# [1] = test system: Proteus mirabilis IXM OM-19; assay: MIC against bacteria (Table I), strain (3); format: cell-based; conditions: IXMOM19
# Description: as §1
# (3) Proteus mirabilis IXM OM-19
# [2] = test system: Pseudomonas aeruginosa ATCC 8689; assay: MIC against bacteria (Table I), strain (4); format: cell-based; conditions: ATCC8689; (4) Pseudomonas aeruginosa ATCC 8689; read-out: MIC
# Description: as §1
# (4) Pseudomonas aeruginosa ATCC 8689
# [3] = test system: Pseudomonas aeruginosa 99 (Gentamycin resistant); assay: MIC against bacteria (Table I), strain (5); format: cell-based
# Description: as §1
# (5) Pseudomonas aeruginosa 99 (Gentamycin resistant)
# [4] = test system: Psuedomonas ovalis IMA 1002; assay: MIC against bacteria (Table I), strain (6); format: cell-based; conditions: (6) Psuedomonas ovalis IMA 1002; read-out: MIC
# Description: as §1
# (6) Psuedomonas ovalis IMA 1002
# [5] = test system: Escherichia coli kauffmann 0-1; assay: MIC against bacteria (Table I), strain (7); format: cell-based; conditions: Escherichia coli
# Description: as §1
# (7) Escherichia coli kauffmann 0-1
# [6] = test system: Klebsiella pneumoniae ATCC 10031; assay: MIC against bacteria (Table I), strain (8); format: cell-based; conditions: ATCC10031
# Description: as §1
# (8) Klebsiella pneumoniae ATCC 10031
# Salmonella typhi H901 W = assay: MIC against bacteria (Table I), strain (9); format: cell-based; conditions: Salmonella enterica, TYPHI
# Description: as §1
# (9) Salmonella typhi H901 W
# Salmonella enteritidis = assay: MIC against bacteria (Table I), strain (10); format: cell-based; conditions: Salmonella enterica
# Description: as §1
# (10) Salmonella enteritidis
# [7] = test system: Shigella flexneri 2a 1675; assay: MIC against bacteria (Table I), strain (11); format: cell-based; conditions: 2A1675
# Description: as §1
# Shigella sonnei II 37148 = assay: MIC against bacteria (Table I), strain (12); format: cell-based; conditions: II37148
# Description: as §1
# [8] = test system: Bacillus megatherium 10778; assay: MIC against bacteria (Table I), strain (13); format: cell-based
# Description: as §1
# [9] = test system: Bacillus subtilis ATCC 6633; assay: MIC against bacteria (Table I), strain (14); format: cell-based; conditions: ATCC6633
# Description: as §1
# (14) Bacillus subtilis ATCC 6633
# [10] = test system: Micrococcus flavus ATCC 10240; assay: MIC against bacteria (Table I), strain (15); format: cell-based; conditions: ATCC10240
# Description: as §1
# (15) Micrococcus flavus ATCC 10240
# [11] = test system: Staphylococcus aureus 209P; assay: MIC against bacteria (Table I), strain (16); format: cell-based
# Description: as §1
# (16) Staphylococcus aureus 209P
# [12] = test system: Staphylococcus Shimanishi; assay: MIC against bacteria (Table I), strain (17); format: cell-based
# Description: as §1
# (17) Staphylococcus Shimanishi
# Staphylococcus Onuma = assay: MIC against bacteria (Table I), strain (18); format: cell-based
# Description: as §1
# (18) Staphylococcus Onuma
# [13] = test system: β-lactamase isolated from Pseudomonas aeruginosa 21; assay: Resistance to β-lactamase: amount of unaltered test sample (Table 3); format: biochemical; conditions: initial concentration 100γ/ml
# Description: For example, the relation between the amount (γ/ml) of an unaltered test sample at an initial concentration of the sample 100γ/ml against β-lactamase isolated from Pseudomonas aeruginosa 21 at various dilutions of the enzyme were investigated.
# [14] = (2) Proteus vulgaris 0X 19US, read-out: MIC
# [15] = (3) Proteus mirabilis IXM OM-19, read-out: MIC
# [16] = (5) Pseudomonas aeruginosa 99 (Gentamycin resistant), read-out: MIC
# [17] = (11) Shigella flexneri 2a 1675, read-out: MIC
# [18] = (12) Shigella sonnei II 37148, read-out: MIC
# [19] = (13) Bacillus megatherium 10778, read-out: MIC
# [20] = (14) Bacillus subtilis ATCC 6633, read-out: MIC
# [21] = (15) Micrococcus flavus ATCC 10240, read-out: MIC
# [22] = (17) Staphylococcus Shimanishi, read-out: MIC
# [23] = (1) Proteus vulgaris OXK US, read-out: MIC
# [24] = (8) Klebsiella pneumoniae ATCC 10031, read-out: MIC
# [25] = (10) Salmonella enteritidis, read-out: MIC
# [26] = (18) Staphylococcus Onuma, read-out: MIC
smiles,measurement,setting,value
"Cc1nnc(SCC2=C(C(=O)O)N3C(=O)[C@@H](NC(=O)Cn4cnnn4)[C@H]3SC2)s1 [Cephazolin, reference compound]",MIC,Proteus vulgaris OXK US; Proteus vulgaris,3.13 µg/mL
same,MIC,Proteus vulgaris 0X 19US; [14],25 µg/mL
same,MIC,[1]; [15],6.25 µg/mL
same,MIC,[2],> 100 µg/mL
same,MIC,[3]; [16],> 100 µg/mL
same,MIC,[4],> 100 µg/mL
same,MIC,[5],1.56 µg/mL
same,MIC,[6]; Klebsiella pneumoniae,1.56 µg/mL
same,MIC,Salmonella typhi H901 W,1.56 µg/mL
same,MIC,Salmonella enteritidis; ENTERITIDIS,1.56 µg/mL
same,MIC,[7]; [17],1.56 µg/mL
same,MIC,Shigella sonnei II 37148; [18],1.56 µg/mL
same,MIC,[8]; [19],0.19 µg/mL
same,MIC,[9]; [20],0.19 µg/mL
same,MIC,[10]; [21],0.19 µg/mL
same,MIC,"[11]; (16) Staphylococcus aureus 209P, read-out: MIC",0.19 µg/mL
same,MIC,[12]; [22],0.78 µg/mL
same,MIC,Staphylococcus Onuma; Staphylococcus,1.56 µg/mL
same,Amount of unaltered test sample,[13]; β-lactamase dilution ×2,0 µg/mL
same,Amount of unaltered test sample,[13]; β-lactamase dilution ×4,0 µg/mL
same,Amount of unaltered test sample,[13]; β-lactamase dilution ×8,0 µg/mL
same,Amount of unaltered test sample,[13]; β-lactamase dilution ×16,0 µg/mL
same,Amount of unaltered test sample,[13]; β-lactamase dilution ×32,0 µg/mL
same,Amount of unaltered test sample,[13]; β-lactamase dilution ×64,9.2 µg/mL
same,Amount of unaltered test sample,[13]; β-lactamase dilution ×128,21.5 µg/mL
same,Amount of unaltered test sample,[13]; β-lactamase dilution ×256,84.6 µg/mL
same,Amount of unaltered test sample,[13]; β-lactamase dilution ×512,96.7 µg/mL
same,Amount of unaltered test sample,[13]; β-lactamase dilution ×1024,100 µg/mL
"CC(C)(Sc1nnc(SCC2=C(C(=O)O)N3C(=O)[C@@H](NC(=O)[C@H](NC(=O)c4cnccc4O)c4ccccc4)[C@H]3SC2)s1)C(=O)O [Example 22, 7-[D-α-(4-hydroxynicotinoylamido)-α-phenylacetamido]-3-[5-(1-carboxy-1-methylethylthio)-1,3,4-thiadiazol-2-yl]thiomethyl-Δ^3-cephem-4-carboxylic acid]",MIC,Proteus vulgaris OXK US; [23],0.19 µg/mL
same,MIC,Proteus vulgaris 0X 19US; Proteus vulgaris,1.56 µg/mL
same,MIC,[1]; [15],0.39 µg/mL
same,MIC,[2],12.5 µg/mL
same,MIC,[3]; [16],6.25 µg/mL
same,MIC,[4],12.5 µg/mL
same,MIC,[5],3.13 µg/mL
same,MIC,[6]; [24],6.25 µg/mL
same,MIC,Salmonella typhi H901 W,3.13 µg/mL
same,MIC,Salmonella enteritidis; [25],0.78 µg/mL
same,MIC,[7]; [17],1.56 µg/mL
same,MIC,Shigella sonnei II 37148; [18],3.13 µg/mL
same,MIC,[8]; [19],0.39 µg/mL
same,MIC,[9]; [20],0.78 µg/mL
same,MIC,[10]; [21],6.25 µg/mL
same,MIC,"[11]; Staphylococcus aureus, 209P",1.56 µg/mL
same,MIC,[12]; [22],12.5 µg/mL
same,MIC,Staphylococcus Onuma; [26],12.5 µg/mL
"Cc1cc(O)c(C(=O)N[C@@H](C(=O)N[C@@H]2C(=O)N3C(C(=O)O)=C(CSc4nnc(SCC(=O)O)s4)CS[C@H]23)c2ccccc2)cn1 [Example 29, 7-[D-α-(4-hydroxy-6-methylnicotinoylamido)-α-phenylacetamido]-3-(5-carboxymethylthio-1,3,4,-thiadiazol-2-yl)thiomethyl-Δ^3-cephem-4-carboxylic acid]",MIC,Proteus vulgaris OXK US; [23],< 0.09 µg/mL
same,MIC,Proteus vulgaris 0X 19US; [14],12.5 µg/mL
same,MIC,[1]; [15],0.78 µg/mL
same,MIC,[2],12.5 µg/mL
same,MIC,[3]; [16],6.25 µg/mL
same,MIC,[4],12.5 µg/mL
same,MIC,[5],3.13 µg/mL
same,MIC,[6]; [24],6.25 µg/mL
same,MIC,Salmonella typhi H901 W,1.56 µg/mL
same,MIC,Salmonella enteritidis; [25],0.78 µg/mL
same,MIC,[7]; [17],0.78 µg/mL
same,MIC,Shigella sonnei II 37148; [18],3.13 µg/mL
same,MIC,[8]; [19],0.78 µg/mL
same,MIC,[9]; [20],0.78 µg/mL
same,MIC,[10]; [21],6.25 µg/mL
same,MIC,"[11]; Staphylococcus aureus, 209P",1.56 µg/mL
same,MIC,[12]; [22],6.25 µg/mL
same,MIC,Staphylococcus Onuma; [26],12.5 µg/mL
"Nn1c(SCC(=O)O)nnc1SCC1=C(C(=O)O)N2C(=O)[C@@H](NC(=O)[C@H](NC(=O)c3cnccc3O)c3ccccc3)[C@H]2SC1 [Example 30, 7-[D-α-(4-hydroxynicotinoylamido)-α-phenylacetamido]-3-(1-amino-5-carboxymethylthio-1,3,4-triazol-2-yl)thiomethyl-Δ^3-cephem-4-carboxylic acid]",MIC,Proteus vulgaris OXK US; [23],< 0.09 µg/mL
same,MIC,Proteus vulgaris 0X 19US; [14],0.78 µg/mL
same,MIC,[1]; [15],0.78 µg/mL
same,MIC,[2],25 µg/mL
same,MIC,[3]; Pseudomonas aeruginosa,12.5 µg/mL
same,MIC,[4],25 µg/mL
same,MIC,[5],6.25 µg/mL
same,MIC,[6]; Klebsiella pneumoniae,12.5 µg/mL
same,MIC,Salmonella typhi H901 W,6.25 µg/mL
same,MIC,Salmonella enteritidis; [25],1.56 µg/mL
same,MIC,[7]; [17],6.25 µg/mL
same,MIC,Shigella sonnei II 37148; [18],12.5 µg/mL
same,MIC,[8]; [19],0.78 µg/mL
same,MIC,[9]; [20],0.78 µg/mL
same,MIC,[10]; Micrococcus flavus,12.5 µg/mL
same,MIC,"[11]; Staphylococcus aureus, 209P",1.56 µg/mL
same,MIC,[12]; Staphylococcus,12.5 µg/mL
same,MIC,Staphylococcus Onuma; [26],25 µg/mL
"O=C(O)Cc1nnc(SCC2=C(C(=O)O)N3C(=O)[C@@H](NC(=O)[C@H](NC(=O)c4csccc4=O)c4ccc(O)cc4)[C@H]3SC2)s1 [Example 32, 7-[D-α-(4-thiopyrone-3-carboxamido)-α-p-hydroxyphenylacetamido]-3-[5-carboxymethyl-1,3,4-thiadiazol-2-yl]thiomethyl-Δ^3-cephem-4-carboxylic acid]",MIC,Proteus vulgaris OXK US; [23],< 0.09 µg/mL
same,MIC,Proteus vulgaris 0X 19US; Proteus vulgaris,3.13 µg/mL
same,MIC,[1]; Proteus mirabilis,0.78 µg/mL
same,MIC,[2],50 µg/mL
same,MIC,[3]; [16],25 µg/mL
same,MIC,[4],50 µg/mL
same,MIC,[5],3.13 µg/mL
same,MIC,[6]; [24],6.25 µg/mL
same,MIC,Salmonella typhi H901 W,1.56 µg/mL
same,MIC,Salmonella enteritidis; ENTERITIDIS,1.56 µg/mL
same,MIC,[7]; [17],0.78 µg/mL
same,MIC,Shigella sonnei II 37148; [18],3.13 µg/mL
same,MIC,"[8]; Bacillus, 10778",0.78 µg/mL
same,MIC,[9]; Bacillus subtilis,0.78 µg/mL
same,MIC,[10]; Micrococcus flavus,3.13 µg/mL
same,MIC,"[11]; Staphylococcus aureus, 209P",1.56 µg/mL
same,MIC,[12]; Staphylococcus,3.13 µg/mL
same,MIC,Staphylococcus Onuma; [26],6.25 µg/mL
"O=C(O)CSc1nnc(SCC2=C(C(=O)O)N3C(=O)[C@@H](NC(=O)[C@H](NC(=O)c4cnccc4O)c4ccc(O)cc4)[C@H]3SC2)s1 [Example 33, 7-[D-α-(4-hydroxynicotinoylamido)-α-p-hydroxyphenylacetamido]-3-[5-carboxymethylthio-1,3,4-Δ^3-thiadiazol-2-yl]thiomethyl-cephem-4-carboxylic acid]",MIC,Proteus vulgaris OXK US; [23],< 0.09 µg/mL
same,MIC,Proteus vulgaris 0X 19US; Proteus vulgaris,12.5 µg/mL
same,MIC,[1]; [15],0.39 µg/mL
same,MIC,[2],25 µg/mL
same,MIC,[3]; [16],25 µg/mL
same,MIC,[4],12.5 µg/mL
same,MIC,[5],3.13 µg/mL
same,MIC,[6]; [24],25 µg/mL
same,MIC,Salmonella typhi H901 W,3.13 µg/mL
same,MIC,Salmonella enteritidis; [25],1.56 µg/mL
same,MIC,[7]; Shigella flexneri,3.13 µg/mL
same,MIC,Shigella sonnei II 37148; Shigella sonnei,3.13 µg/mL
same,MIC,[8]; [19],0.78 µg/mL
same,MIC,[9]; [20],0.78 µg/mL
same,MIC,[10]; Micrococcus flavus,3.13 µg/mL
same,MIC,"[11]; Staphylococcus aureus, 209P",3.13 µg/mL
same,MIC,[12]; [22],12.5 µg/mL
same,MIC,Staphylococcus Onuma; [26],25 µg/mL
